Laboratory results reported in article PMC11311250 (Organic & biomolecular chemistry, 2023).
Like-named read-outs stand apart in the source and are kept apart here.

Tests used:
[1] = amide bond, 12-membered ring
P. aeruginosa K799 = assay: antibacterial microdilution growth inhibition; type: cell-based, Pseudomonas aeruginosa
[2] = amide bond; 12-membered ring; T3P/DIEA; DMF; 45.0 °C
[3] = T3P/DIEA, DCE, 1.0 mM, 80.0 °C, 3 steps
[4] = T3P/collidine, DCE, 1.0 mM, 80.0 °C, 3 steps

For “(3S,6S,9R,12S)-3,9-dibenzyl-1,6,7,12-tetramethyl-1,4,7,10-tetraazacyclododecane-2,5,8,11-tetraone (cyclo (L-N-Me-Ala–L-Phe–L-N-Me-Ala-D-Phe))”, the ring closure, isolated yield [1, 3] was 5%.

Substance ALAL has a ring closure, isolated yield [1, 4] of 11%.

With “all-L cyclo(N-Me-Leu–Phe)2 (head to tail) [pseudoxylallemycin A]” the growth inhibition (P. aeruginosa K799) was “failed to inhibit the growth”.

For epi-pseudoxylallemycin, the ring closure, isolated yield ([1]; T3P/DIEA, DCM/DMF 9:1, 45.0 °C) was 26%.

In the case of epi-pseudoxylallemycin A, the ring closure, isolated yield [1, 4] is reported as 33%.

pseudoxylallemycin A gave a ring closure, isolated yield [1, 3] of 18.1%, a ring closure, isolated yield ([1]; T3P/DIEA, DMF, 1.0 mM, 45.0 °C, 3 steps) of 11.7% and a ring closure, isolated yield ([1]; T3P/DIEA, DMF, 1.0 mM, 80.0 °C, 3 steps) of 14.7%. It also gave a ring closure, isolated yield ([1]; T3P/DtBP, DCE, 1.0 mM, 80.0 °C, 3 steps) of 19%, a ring closure, isolated yield [1, 4] of 36% and a ring closure, isolated yield ([1]; T3P/pyridine, DCE, 1.0 mM, 80.0 °C, 3 steps) of 32%. For the same substance, the ring closure, yield after HPLC [2] was 24%.
